In ChEMBL document CHEMBL4196241, “Auranthine, a Benzodiazepinone from Penicillium aurantiogriseum: Refined Structure, Absolute Configuration, and Cytotoxicity” (J Nat Prod, 2018):
pIC50: −log10 of the molar value. Activity calls are given as the source filed them. No cut-off for these calls is given here.

What was measured:
HepG2 [1] = experiment: Cytotoxicity against human HepG2 cells assessed as reduction in cell viability at 100 uM by CCK8 assay relative to control; assay type: functional
HepG2 [2] = experiment: Cytotoxicity against human HepG2 cells assessed as reduction in cell viability by CCK8 assay relative to control; assay type: functional, cell-based
[3] = (§1) Cytotoxicity against human IHKE cells assessed as reduction in cell viability by CCK8 assay; assay type: functional, cell-based
HepG2 [4] = experiment: Cytotoxicity against human HepG2 cells assessed as reduction in cell viability up to 100 uM by CCK8 assay; assay type: functional, cell-based
Homo sapiens [5] = species on record: Homo sapiens; experiment: as §1; assay type: functional, cell-based
Homo sapiens [6] = species on record: Homo sapiens; experiment: Cytotoxicity against human IHKE cells assessed as reduction in cell viability up to 100 uM by CCK8 assay; assay type: functional, cell-based

Row | Structure (SMILES) | Activity (HepG2 [1]) | Activity (HepG2 [2]) | pIC50 [3] | Activity (HepG2 [4]) | Activity (Homo sapiens [5]) | Activity (Homo sapiens [6])
1 | C=CC(C)(C)c1[nH]cnc1/C=C1\NC(=O)[C@H](C(C)C)NC1=O | <=56% | Dose-dependent effect | 4.60 | – | – | –
2 | CN1C(=O)c2ccccc2N2C(=O)c3ccccc3N[C@@H]2[C@@H]1CCC#N | – | – | – | inactive | Dose-dependent effect | –
3 | N#CCC[C@@H]1NC(=O)c2ccccc2-n2c1nc1ccccc1c2=O | – | – | – | inactive | – | inactive
4 | N#CCC[C@@H]1NC(=O)c2ccccc2N2C(=O)c3ccccc3N[C@H]12 | – | – | – | inactive | – | inactive
